Data: patent publication US20250027958A1, “DIAGNOSTIC AND THERAPEUTIC METHODS USING HEME AS A BIOMARKER FOR CELLULAR AND TISSUE DAMAGE” (Beth Israel Deaconess Medical Center, Inc., priority 2021, published 2025)
Entries after “also recorded” stand apart in the source; their conditions may differ.

Test system: male C57BL/6 mice
Settings: DOX 20 mg/kg i.p., blood collected 1 hr later
Protocol: In brief, for the assessment of acute cytotoxicity, male C57BL/6 mice (10-12 weeks old) are administered HBI-002 (10 ml/kg, per os) or a control vehicle (10ml/kg, per os) at 0 hr and 1 hr, followed by administration of doxorubicin at 1.25 hr (20 mg/kg, intraperitoneal injection) and blood and tissue collection at 2.25 hr.
Male C57BL/6 mice (10-12 weeks old) were administered HBI-002 (10 ml/kg, per os) or a control vehicle (10 ml/kg, per os) at 0 hr and 1 hr, followed by administration of DOX at 1.25 hr (20 mg/kg, intraperitoneal injection) and blood and tissue collection at 2.25 hr (FIG. 1).

COc1cccc2c1C(=O)c1c(O)c3c(c(O)c1C2=O)C[C@@](O)(C(=O)CO)C[C@@H]3O[C@H]1C[C@H](N)[C@H](O)[C@H](C)O1 [DOX, Doxorubicin]
serum heme upon administration of DOX: significant increases in heme levels; also recorded: significant increase in serum heme
